Where a SMILES comes first, the peptide text is derived from it. Where no end group is shown, it is not given here.
Each compound was assayed on isolated thymopoietin cell surface receptor protein from CEM cells (assay: not given). Settings: 2.3×10^-10 M 125I-Tp, 4 μg receptor protein, TP 37-45 nonapeptide present, 12 h.

Compound	displacement of 125I-thymopoietin (in words)
C[C@H](N)C(=O)NCC(=O)N[C@H]1CSSC[C@@H](C(=O)O)NC(=O)[C@H](CO)NC(=O)[C@H]([C@@H](C)O)NC(=O)[C@H](Cc2ccccc2)NC(=O)[C@H]([C@@H](C)O)NC(=O)[C@H](CCCCN)NC(=O)[C@H](Cc2c[nH]c3ccccc23)NC(=O)[C@H](Cc2ccccc2)NC(=O)[C@H](Cc2ccccc2)NC(=O)[C@H](CC(N)=O)NC(=O)[C@H](CCCCN)NC1=O [somatostatin]	no detectable displacement
ACTH: adrenocorticotropic hormone (SYSMEHFRWGKPVGKKRRPVKVYPNGAEDESAEAFPLEF; Corticotropin; UniProt P01189 138-176, looked up)	no detectable displacement
CRF: corticotropin-releasing factor (SEEPPISLDLTFHLLREVLEMARAEQLAQQAHSNRKLMEII; ends and bridges not checked; UniProt P06850 154-194, looked up)	no detectable displacement
glucagon: comparison peptide in the receptor assay	no detectable displacement
growth hormone: comparison peptide in the receptor assay	no detectable displacement
ubiquitin	no detectable displacement
β-endorphin: comparison peptide in the receptor assay (YGGFMTSEKSQTPLVTLFKNAIIKNAYKKGE; Beta-endorphin; UniProt P01189 237-267, looked up)	no detectable displacement

What follows are compounds tested on cell membrane receptor of the intact CEM cell (assay: Cyclic-GMP assay: induction of cyclic-GMP production in CEM cells). Settings: 4-5 min incubation at 37° C., radioimmunoassay of cyclic GMP.
Assay type: cell-based, human
Source text: This biological activity is evidenced by an assay measuring induction of cyclic-GMP production in a human T-cell line in comparison with thymopoietin. The induction of c-GMP production by a test peptide in this assay indicates the ability of the test peptide to bind to the thymopoietin receptor site on the cell and induce thymopoietin-like biological activity.
This assay measures the ability of the test peptide to bind to the cell membrane receptor of the intact CEM cell and selectively stimulate production of cyclic-GMP, as does thymopoietin itself.
The CEM cell line was obtained from the American Type Culture Collection and was cultured in RPMI-1640 medium supplemented with 10% heat-inactivated fetal bovine serum, 10% heat-inactivated horse serum, 2mM L-glutamine, and 50 µg/ml gentamycin at 37° C. in a humid atmosphere containing 5 percent CO2, to a final density of 3-4×10^6 cells/ml. […]
The cells in TCA were then homogenized and sonicated to release cyclic nucleotide. The resulting suspension was centrifuged at 3000 g for 20 min at 4° C. and the resulting precipitate was dissolved in 0.1N NaOH and sonicated for a further 30 minutes, after which the protein content was determined by the method of Cadman, et al., Anal. Biochem., 96, 21-23 (1979). […]

Compound	thymopentin-like activity (cyclic GMP induced by test peptide)
CC(C)[C@@H]1NC(=O)[C@H](CC(=O)O)NC(=O)[C@H](CCCCN)NC(=O)[C@H](CCCNC(=N)N)NC(=O)[C@H](Cc2ccc(O)cc2)NC1=O [peptide 1, Cyclo-(Arg-Lys-Asp-Val-Tyr)] (cyclo(DVYRK))	demonstrated thymopentin-like activity
CC(C)[C@@H]1NC(=O)[C@H](CC(=O)O)NC(=O)[C@H](CCCCN)NC(=O)[C@H](CCCNC(=N)N)NC(=O)CNC(=O)[C@H](Cc2ccc(O)cc2)NC1=O [peptide 2, Cyclo-[Arg-Lys-Asp-Val-Tyr-Gly]] (cyclo(DVYGRK))	demonstrated thymopentin-like activity
